Target: T1, Human CaV2.2 channels (Homo sapiens, UniProt Q00975)
T1 construct: expressed in transfected cells
Experiment: Fluorescence assay for CaV2.2 channels using potassium depolarization to induce channel opening (FLIPR, Fluo 4)
Assay type: cell-based
Conditions: 30 mM KCl (alternative assay buffer, inactivated channel state), HEK293 cells; for inhibition at 3 µM: HEK293, 3 μM test compound, read-out: Activity Category: %-Inhib (CaV2.2) @3 μM @30 mM KCl
Description: In the process, the Ca^2+ influx is quantified in the FLIPR assay with the aid of a Ca^2+-sensitive dye (type Fluo-4, Molecular Probes Europe BV, Leiden, the Netherlands) in a fluorescent imaging plate reader (FLIPR 3, Molecular Devices, Sunnyvale, USA), as described hereinafter.
2.1 Fluorescence Assay for CaV2.2 Channels Using Potassium Depolarization to Induce Channel Opening
Human CaV2.2 channels were stably expressed in HEK293 cells together with alpha2-delta and beta subunits of voltage gated calcium channels. In addition, an inwardly rectifying potassium channel (Kir2.3) was stably expressed in these cells to augment control of the cell membrane potential by the concentration of extracellular potassium ions. Raise of the extracellular potassium concentration leads to depolarization of the membrane potential and thus regulates the voltage dependent state of CaV2.2 channels. For preparation, cells were seeded in black poly-D-lysine coated 96-well plates (Becton Dickinson, Biocoat 4640) in 100 μL medium [500 mL DMEM/F-12 plus Glutamax (Invitrogen 31331-093) plus 5.5 mL MEM NEAA 100× (Invitrogen 11140-035) plus 50 mL FBS decomplemented (Invitrogen 10270-106) plus 200 μg/mL Geneticin (Invitrogen 10131-027) plus 50 μg/mL Hygromycin B (Invitrogen 10687-010) plus 2 μg/mL Blasticidin (anti-b15b Invivo-Gen) plus 0.2 μg/mL Puromycin (A 11138-03)] at a cell density of 30.000 cells per well. Plates were incubated at 37° C. (5% CO2) for 20 to 23 h. On the day of experiment medium was discarded and cells were loaded with Fluo 4 by addition of 100 μL of basic assay buffer (10 mM HEPES, 1 mM KCl, 149 mM NaCl, 0.8 mM CaCl2, 1.7 mM MgCl2, 10 mM Glucose, 0.1% BSA. pH 7.4) containing 2 μM Fluo 4 (Molecular Probes; F-14201), 0.01% pluronic acid (Molecular Probes; P-6866) and 2.5 mM probenecid (Molecular Probes; P36400). Cells were incubated in the dark at 25° C. for 60 min. Then dye containing buffer was discarded and […] basic (1 mM KCl) or alternative (30 mM KCl) assay buffer was added. The alternative assay buffer contained altered concentrations of KCl (30 mM) and NaCl (120 mM) and was used in order to promote the inactivated channel state. After that 25 μL of basic or alternative assay buffer with or without test compound were added and cells were incubated again in the dark at 25° C. for 15 min. Fluorescence intensity was measured on a FLIPR 3 instrument (Molecular Devices Corp., Sunnyvale, Calif.) with excitation at 480 nm and emission at 535 nm. After continuously reading fluorescence for 30 sec, 50 μL of basic assay buffer containing 210 mM KCl (NaCl omitted) were added for depolarization. Peak fluorescent signal intensity was determined and the amplitude of the peak signal, normalized to base line, was used to measure channel inhibition by test compounds.

T1 sequence (Q00975 whole entry): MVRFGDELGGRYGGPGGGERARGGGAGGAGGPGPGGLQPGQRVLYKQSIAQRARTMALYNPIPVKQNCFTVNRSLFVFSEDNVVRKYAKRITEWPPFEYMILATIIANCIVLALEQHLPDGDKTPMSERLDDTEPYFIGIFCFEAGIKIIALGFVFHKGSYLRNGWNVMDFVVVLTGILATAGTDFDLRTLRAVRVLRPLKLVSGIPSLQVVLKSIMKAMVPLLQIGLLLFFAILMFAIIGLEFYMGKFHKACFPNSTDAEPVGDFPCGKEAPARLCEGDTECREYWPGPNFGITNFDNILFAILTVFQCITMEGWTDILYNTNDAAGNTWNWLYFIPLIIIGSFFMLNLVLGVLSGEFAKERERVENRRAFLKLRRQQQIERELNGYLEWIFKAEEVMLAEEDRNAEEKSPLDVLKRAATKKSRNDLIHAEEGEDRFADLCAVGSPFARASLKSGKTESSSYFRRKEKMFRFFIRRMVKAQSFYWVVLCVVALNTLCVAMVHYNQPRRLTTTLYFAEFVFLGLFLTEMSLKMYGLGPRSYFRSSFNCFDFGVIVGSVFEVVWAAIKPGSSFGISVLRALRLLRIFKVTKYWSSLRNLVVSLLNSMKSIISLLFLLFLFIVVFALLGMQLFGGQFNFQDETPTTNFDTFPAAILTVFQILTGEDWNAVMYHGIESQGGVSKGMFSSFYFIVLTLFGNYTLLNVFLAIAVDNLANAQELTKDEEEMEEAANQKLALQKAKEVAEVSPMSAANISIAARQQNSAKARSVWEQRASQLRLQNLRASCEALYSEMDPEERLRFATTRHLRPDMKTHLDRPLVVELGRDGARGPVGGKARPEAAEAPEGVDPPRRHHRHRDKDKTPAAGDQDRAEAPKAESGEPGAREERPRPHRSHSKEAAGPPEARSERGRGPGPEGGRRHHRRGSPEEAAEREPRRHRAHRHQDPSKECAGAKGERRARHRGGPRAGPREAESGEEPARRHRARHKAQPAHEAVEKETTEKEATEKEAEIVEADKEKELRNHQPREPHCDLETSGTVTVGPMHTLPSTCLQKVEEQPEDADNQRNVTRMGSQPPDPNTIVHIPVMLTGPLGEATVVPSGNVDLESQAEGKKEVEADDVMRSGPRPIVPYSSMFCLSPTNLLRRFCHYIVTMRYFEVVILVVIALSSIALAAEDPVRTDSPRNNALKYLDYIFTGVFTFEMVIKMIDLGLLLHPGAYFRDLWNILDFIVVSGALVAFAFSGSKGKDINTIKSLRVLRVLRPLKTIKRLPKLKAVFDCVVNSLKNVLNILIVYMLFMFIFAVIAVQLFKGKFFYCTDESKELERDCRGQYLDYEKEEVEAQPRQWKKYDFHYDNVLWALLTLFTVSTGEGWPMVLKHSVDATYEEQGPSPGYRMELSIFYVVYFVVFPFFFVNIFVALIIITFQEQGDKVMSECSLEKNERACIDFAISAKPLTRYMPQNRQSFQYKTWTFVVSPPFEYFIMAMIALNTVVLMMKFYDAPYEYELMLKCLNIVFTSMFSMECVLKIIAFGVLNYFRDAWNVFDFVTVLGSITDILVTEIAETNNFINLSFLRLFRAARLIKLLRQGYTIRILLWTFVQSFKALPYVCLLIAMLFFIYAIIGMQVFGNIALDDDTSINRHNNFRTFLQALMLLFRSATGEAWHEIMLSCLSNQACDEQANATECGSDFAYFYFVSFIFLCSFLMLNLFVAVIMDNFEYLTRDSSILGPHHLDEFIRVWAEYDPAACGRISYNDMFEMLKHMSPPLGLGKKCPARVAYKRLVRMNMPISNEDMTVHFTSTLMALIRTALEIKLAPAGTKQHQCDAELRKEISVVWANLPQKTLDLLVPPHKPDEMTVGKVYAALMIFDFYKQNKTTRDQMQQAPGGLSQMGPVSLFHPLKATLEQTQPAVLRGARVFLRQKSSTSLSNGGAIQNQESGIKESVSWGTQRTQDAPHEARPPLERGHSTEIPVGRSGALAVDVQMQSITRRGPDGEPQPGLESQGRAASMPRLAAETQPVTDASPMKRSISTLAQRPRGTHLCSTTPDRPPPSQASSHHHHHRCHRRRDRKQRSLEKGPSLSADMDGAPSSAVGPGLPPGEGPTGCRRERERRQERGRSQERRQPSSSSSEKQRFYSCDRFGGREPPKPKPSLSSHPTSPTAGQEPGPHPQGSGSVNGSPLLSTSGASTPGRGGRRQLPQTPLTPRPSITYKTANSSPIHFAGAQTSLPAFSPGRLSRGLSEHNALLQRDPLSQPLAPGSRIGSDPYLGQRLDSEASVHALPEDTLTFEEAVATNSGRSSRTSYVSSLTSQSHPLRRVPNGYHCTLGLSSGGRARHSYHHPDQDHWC

| Compound | inhibition at 3 µM | Activity Category: %-Inhib (CaV2.2) @3 μM @30 mM KCl (3 μM test compound) |
| --- | --- | --- |
| CC(C)(C(N)=O)n1nc(C(F)(F)F)cc1C1CC(C)(S(=O)(=O)c2cccc(C(F)(F)F)c2)CCO1 (stereo not drawn) [Example 26 cis-EN1, 2-Methyl-2-[5-[4-methyl-4-[[3-(trifluoromethyl)phenyl]sulfonyl]-tetrahydro-pyran-2-yl]-3-(trifluoromethyl)-1H-pyrazol-1-yl]-propionamide] | > 95% | – |
| CC(C)(C(N)=O)n1nc(C(F)(F)F)cc1C1CC(C)(S(=O)(=O)c2cccc(C(F)(F)F)c2)CCO1 (stereo not drawn) [Example 26 cis-EN2, 2-Methyl-2-[5-[4-methyl-4-[[3-(trifluoromethyl)phenyl]sulfonyl]-tetrahydro-pyran-2-yl]-3-(trifluoromethyl)-1H-pyrazol-1-yl]-propionamide] | – | B (“B”: %-Inhibition >75% up to ≤95%) |
| CN(C)C(=O)Cn1nc(C(F)(F)F)cc1C1CC(C)(S(=O)(=O)c2cccc(C(F)(F)F)c2)CCO1 (stereo not drawn) [Example 28 cis-EN1, N,N-Dimethyl-2-[5-[4-methyl-4-[[3-(trifluoromethyl)phenyl]sulfonyl]-tetrahydro-pyran-2-yl]-3-(trifluoromethyl)-1H-pyrazol-1-yl]-acetamide] | 75 to 95% | – |
| CNC(=O)Cn1nc(C(F)(F)F)cc1C1CC(C)(S(=O)(=O)c2cccc(C(F)(F)F)c2)CCO1 (stereo not drawn) [Example 29 cis-EN1, N-Methyl-2-[5-[4-methyl-4-[[3-(trifluoromethyl)phenyl]sulfonyl]-tetrahydro-pyran-2-yl]-3-(trifluoromethyl)-1H-pyrazol-1-yl]-acetamide] | 75 to 95% | – |

— patent US10100041B2, “Pyrazolyl substituted tetrahydropyranylsulfones” (GRÜNENTHAL GMBH, priority 2015, dated 2018)
